Here are results for one molecule from ChEMBL document CHEMBL3739345, “Design and synthesis of potent and selective inhibitors of BRD7 and BRD9 bromodomains” (Medchemcomm, 2015).

One test deals with T1, Peregrin (Homo sapiens) (UniProt P55201).
T1 sequence (whole entry): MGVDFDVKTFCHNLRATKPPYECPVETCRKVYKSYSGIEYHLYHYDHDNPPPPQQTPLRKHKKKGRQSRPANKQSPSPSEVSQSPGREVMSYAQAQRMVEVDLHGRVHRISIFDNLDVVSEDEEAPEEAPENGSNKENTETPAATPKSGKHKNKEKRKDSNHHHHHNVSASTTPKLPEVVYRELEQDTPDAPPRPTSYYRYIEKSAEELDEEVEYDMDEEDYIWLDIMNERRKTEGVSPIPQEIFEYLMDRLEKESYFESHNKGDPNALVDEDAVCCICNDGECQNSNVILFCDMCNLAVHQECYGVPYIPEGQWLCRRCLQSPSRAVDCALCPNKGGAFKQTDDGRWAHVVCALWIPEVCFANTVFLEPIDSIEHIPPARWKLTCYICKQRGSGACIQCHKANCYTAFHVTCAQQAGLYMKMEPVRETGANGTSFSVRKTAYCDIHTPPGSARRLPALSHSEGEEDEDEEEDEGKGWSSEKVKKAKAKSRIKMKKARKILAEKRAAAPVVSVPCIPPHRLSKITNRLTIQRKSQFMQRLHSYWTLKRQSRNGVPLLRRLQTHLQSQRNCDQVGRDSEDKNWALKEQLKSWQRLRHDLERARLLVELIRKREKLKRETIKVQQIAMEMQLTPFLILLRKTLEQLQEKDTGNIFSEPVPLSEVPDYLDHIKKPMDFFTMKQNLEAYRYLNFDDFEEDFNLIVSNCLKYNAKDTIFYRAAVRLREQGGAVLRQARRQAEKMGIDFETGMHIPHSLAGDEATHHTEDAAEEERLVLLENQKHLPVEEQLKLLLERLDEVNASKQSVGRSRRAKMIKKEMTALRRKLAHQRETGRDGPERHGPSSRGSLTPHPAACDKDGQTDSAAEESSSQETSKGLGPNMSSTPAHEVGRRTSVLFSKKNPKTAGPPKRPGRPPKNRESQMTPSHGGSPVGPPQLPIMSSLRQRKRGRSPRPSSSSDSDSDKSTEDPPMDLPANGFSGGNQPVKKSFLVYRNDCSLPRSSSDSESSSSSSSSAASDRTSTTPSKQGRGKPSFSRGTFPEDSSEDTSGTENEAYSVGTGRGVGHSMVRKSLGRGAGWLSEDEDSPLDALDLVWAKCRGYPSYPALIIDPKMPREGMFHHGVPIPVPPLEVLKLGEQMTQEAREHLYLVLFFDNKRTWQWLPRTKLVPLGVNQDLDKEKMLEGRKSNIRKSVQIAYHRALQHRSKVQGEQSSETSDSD
The test can be described thus: Binding affinity to human BRPF1B assessed as change in melting temperature at 10 uM by differential scanning fluorimetry. (In general: DSF heats the sample and reads unfolding from a dye or from intrinsic fluorescence.)

The target in test [1] is Bromodomain-containing protein 4 (Homo sapiens, UniProt O60885). Nature of the test: Binding affinity to human BRD4 at 15 uM by isothermal titration calorimetry.
Test [2] addresses Histone acetyltransferase p300 (Homo sapiens) (UniProt Q09472). Nature of the test: Binding affinity to human p300 assessed as change in melting temperature at 10 uM by differential scanning fluorimetry.
Test [3] addresses T2, Bromodomain-containing protein 1 (Homo sapiens) (UniProt O95696).
T2 sequence (whole entry): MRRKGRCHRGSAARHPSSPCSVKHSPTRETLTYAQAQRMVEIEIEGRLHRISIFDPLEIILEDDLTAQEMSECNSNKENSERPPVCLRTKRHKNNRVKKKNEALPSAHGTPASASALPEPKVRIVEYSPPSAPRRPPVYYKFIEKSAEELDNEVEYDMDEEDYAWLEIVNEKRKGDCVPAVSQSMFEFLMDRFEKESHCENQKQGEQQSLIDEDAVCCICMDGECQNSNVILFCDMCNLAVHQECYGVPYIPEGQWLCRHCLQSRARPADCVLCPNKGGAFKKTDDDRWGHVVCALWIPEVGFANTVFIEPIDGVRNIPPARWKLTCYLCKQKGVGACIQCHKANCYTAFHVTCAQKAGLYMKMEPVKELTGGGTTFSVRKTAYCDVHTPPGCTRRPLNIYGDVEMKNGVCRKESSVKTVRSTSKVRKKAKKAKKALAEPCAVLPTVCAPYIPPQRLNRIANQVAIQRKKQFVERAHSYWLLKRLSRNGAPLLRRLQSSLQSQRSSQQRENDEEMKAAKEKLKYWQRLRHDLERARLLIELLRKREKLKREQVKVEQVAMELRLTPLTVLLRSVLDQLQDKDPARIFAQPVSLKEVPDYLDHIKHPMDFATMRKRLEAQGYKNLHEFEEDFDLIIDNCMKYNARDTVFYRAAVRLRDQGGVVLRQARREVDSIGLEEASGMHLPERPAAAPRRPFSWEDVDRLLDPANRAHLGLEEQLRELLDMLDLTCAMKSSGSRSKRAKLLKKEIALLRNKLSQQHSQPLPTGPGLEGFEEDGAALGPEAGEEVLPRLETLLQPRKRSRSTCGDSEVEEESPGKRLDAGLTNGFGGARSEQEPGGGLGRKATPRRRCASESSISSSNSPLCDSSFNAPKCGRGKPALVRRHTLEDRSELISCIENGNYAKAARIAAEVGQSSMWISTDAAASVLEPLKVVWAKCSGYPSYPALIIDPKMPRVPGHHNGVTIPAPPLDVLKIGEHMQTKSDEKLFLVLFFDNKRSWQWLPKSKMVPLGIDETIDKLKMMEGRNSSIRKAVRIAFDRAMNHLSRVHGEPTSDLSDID
Nature of the test: Binding affinity to human BRD1 at 10 uM by differential scanning fluorimetry.

The target of test [4] is T3, Bromodomain-containing protein 7 (Homo sapiens, UniProt Q9NPI1).
T3 sequence (Q9NPI1 whole entry): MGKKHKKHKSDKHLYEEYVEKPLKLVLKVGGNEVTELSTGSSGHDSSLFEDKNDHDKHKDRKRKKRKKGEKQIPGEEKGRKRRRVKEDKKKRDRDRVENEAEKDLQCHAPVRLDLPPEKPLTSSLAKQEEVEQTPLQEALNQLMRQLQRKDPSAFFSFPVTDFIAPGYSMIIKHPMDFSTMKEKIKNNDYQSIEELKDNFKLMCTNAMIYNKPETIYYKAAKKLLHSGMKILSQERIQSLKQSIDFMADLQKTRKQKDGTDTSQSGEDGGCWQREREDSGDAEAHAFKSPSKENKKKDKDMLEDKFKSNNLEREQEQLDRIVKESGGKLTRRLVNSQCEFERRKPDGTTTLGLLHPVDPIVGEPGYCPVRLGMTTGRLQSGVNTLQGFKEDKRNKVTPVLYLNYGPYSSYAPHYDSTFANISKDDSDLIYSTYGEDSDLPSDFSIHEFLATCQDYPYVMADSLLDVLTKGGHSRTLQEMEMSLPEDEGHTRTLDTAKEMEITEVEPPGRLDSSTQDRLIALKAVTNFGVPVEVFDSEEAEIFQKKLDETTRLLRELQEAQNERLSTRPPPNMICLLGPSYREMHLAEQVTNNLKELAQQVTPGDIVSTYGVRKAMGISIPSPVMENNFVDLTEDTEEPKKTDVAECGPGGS
Nature of the test: Binding affinity to human BRD7 by isothermal titration calorimetry.

Activity calls are given as the source filed them. The rule behind the calls is not given here.

Sequence of Histone acetyltransferase p300 (Homo sapiens) (Q09472 whole entry): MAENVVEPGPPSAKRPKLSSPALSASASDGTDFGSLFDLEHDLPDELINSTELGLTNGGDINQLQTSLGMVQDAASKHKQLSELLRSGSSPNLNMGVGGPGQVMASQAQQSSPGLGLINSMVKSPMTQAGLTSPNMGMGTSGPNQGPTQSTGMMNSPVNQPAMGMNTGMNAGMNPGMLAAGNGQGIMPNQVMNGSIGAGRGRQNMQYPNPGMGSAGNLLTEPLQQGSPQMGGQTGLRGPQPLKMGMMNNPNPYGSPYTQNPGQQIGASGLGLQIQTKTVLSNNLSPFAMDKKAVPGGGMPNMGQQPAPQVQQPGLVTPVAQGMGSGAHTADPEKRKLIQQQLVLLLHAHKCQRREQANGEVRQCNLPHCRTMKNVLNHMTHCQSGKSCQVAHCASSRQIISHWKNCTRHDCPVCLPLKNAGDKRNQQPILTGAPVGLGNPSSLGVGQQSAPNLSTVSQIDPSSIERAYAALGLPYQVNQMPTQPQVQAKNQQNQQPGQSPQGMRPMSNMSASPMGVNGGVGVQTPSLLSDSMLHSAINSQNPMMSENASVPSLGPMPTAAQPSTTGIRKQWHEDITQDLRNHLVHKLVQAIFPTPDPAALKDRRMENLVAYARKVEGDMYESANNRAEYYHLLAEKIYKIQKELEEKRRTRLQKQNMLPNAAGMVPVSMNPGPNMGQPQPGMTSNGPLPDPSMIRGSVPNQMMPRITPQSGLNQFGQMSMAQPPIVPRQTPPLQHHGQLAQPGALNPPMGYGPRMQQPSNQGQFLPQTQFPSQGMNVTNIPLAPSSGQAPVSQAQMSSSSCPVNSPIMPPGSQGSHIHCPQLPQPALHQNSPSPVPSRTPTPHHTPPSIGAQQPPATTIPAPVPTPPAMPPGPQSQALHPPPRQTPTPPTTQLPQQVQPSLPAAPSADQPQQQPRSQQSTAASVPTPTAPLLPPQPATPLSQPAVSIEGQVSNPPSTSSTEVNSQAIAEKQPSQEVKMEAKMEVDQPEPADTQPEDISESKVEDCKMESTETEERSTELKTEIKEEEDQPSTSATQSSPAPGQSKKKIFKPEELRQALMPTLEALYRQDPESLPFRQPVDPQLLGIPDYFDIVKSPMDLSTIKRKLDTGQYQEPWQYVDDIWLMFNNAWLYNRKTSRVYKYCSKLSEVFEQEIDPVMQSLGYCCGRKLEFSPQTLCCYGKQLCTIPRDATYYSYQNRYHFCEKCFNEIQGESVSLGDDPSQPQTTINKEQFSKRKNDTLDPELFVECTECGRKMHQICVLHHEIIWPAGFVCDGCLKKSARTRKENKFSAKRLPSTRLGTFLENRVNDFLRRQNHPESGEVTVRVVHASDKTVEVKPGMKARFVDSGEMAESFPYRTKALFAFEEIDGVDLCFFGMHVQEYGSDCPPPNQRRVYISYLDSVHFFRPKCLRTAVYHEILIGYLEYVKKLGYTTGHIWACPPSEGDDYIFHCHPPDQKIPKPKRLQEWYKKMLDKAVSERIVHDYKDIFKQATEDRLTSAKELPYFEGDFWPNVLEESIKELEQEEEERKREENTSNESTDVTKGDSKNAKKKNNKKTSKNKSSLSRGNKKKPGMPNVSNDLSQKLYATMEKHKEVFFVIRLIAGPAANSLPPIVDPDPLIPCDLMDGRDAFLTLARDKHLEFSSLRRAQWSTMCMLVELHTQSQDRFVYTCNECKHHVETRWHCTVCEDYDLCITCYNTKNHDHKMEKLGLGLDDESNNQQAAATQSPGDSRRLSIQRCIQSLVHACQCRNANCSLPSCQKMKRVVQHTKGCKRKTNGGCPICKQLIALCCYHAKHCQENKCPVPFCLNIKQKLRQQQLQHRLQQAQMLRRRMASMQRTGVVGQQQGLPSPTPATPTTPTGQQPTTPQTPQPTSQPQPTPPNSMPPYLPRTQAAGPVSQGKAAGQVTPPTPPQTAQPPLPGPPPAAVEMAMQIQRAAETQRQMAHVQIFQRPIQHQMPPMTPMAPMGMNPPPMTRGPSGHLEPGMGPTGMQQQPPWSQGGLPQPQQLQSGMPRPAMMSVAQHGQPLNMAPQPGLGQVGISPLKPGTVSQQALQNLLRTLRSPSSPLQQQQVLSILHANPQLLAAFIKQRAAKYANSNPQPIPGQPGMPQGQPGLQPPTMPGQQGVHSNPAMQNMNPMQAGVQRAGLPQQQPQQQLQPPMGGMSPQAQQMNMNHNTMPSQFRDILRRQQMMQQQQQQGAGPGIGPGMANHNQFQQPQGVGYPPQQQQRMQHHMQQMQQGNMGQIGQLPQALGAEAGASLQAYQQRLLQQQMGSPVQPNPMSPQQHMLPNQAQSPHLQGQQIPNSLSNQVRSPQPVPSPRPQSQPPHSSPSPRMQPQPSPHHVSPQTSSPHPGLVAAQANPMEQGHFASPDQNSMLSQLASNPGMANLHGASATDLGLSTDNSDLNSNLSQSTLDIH

Usually ΔTm stands for the change in melting temperature against a reference sample. By Kd is commonly meant a measure of binding affinity in units of concentration. Low values mean tighter binding, high ones weaker binding. In the case of `CC(=O)c1cc(-c2cccc3nccn23)c2cc(N3CCOCC3)ccn12`, the ΔTm on Peregrin (Homo sapiens) worked out at 1.7 °C; in test [2], 2 °C. The outcome in test [1] was inactive. For the same molecule, the result in test [3] was Active. Binding in test [4] was characterised by a dissociation constant (Kd) of 368 nM.
